Measured values published in patent US20240101531A1, “PYRIDINAMINE DERIVATIVES AND THEIR USE AS POTASSIUM CHANNEL MODULATORS” (Xenon Pharmaceuticals Inc., priority 2022, published 2024).
Counter-ions that a name gives are not always drawn.

Each compound was assayed against human KV7.2/KV7.3 (Homo sapiens (Human), UniProt O43525+O43526) (assay: Potassium flux assay (IPG-2 AM dye)). Conditions: TREX HEK 293 or HEK 293 cells expressing human KV7.2/KV7.3; arithmetic mean values.
Format: cell-based
Excerpt: This potassium flux assay employs the cell-permeable, potassium-sensitive dye, IPG-2 AM, to quantify potassium ion flux through potassium channels.
In general, TREX HEK 293 or HEK 293 cells were stably transfected with either an inducible or non-inducible expression vector containing the full-length cDNA coding for the desired human KV7.2/KV7.3 or in combination with another full-length cDNA for a second desired human KV7 potassium channel. Potassium channel-expressing cell lines were induced with tetracycline (1 μg/mL), if required, and plated on 384-well poly-D-lysine (PDL)-coated plates in culture media (DMEM, containing 10% FBS and 1% L-glutamine). After overnight incubation, culture media was removed and cells were loaded with 5 μM IPG-2 AM dye for 1 hour in Assay buffer (140 mM NaCl, 20 mM RbCl, 2 mM CaCl2, 1 mM MgCl2, 10 mM HEPES (4-(2-hydroxyethyl)-1-piperazineethanesulfonic acid buffer), 10 mM glucose, adjusted with Tris to pH 7.4). Excess dye was removed, and cells incubated at room temperature for 20 minutes with or without test compound. A Hamamatsu FDSS μCell was used to perform a 1:1 addition of K challenge buffer (150 mM NaCl, 10 mM HEPES, 2 mM CaCl2, 10 mM KCl, 1 mM MgCl2, 10 mM glucose, adjusted with Tris to pH 7.4 for human KV7.2/KV7.3, and simultaneously read plates at excitation wavelength of 530 nm and emission wavelength of 558 nm. Non-potassium channel-mediated potassium influx was determined in the presence of DMSO, and maximal influx was determined in the presence of a known KV7.x channel modulator. For each test compound, a concentration response curve was generated with 16 concentrations points, 2-fold serial dilution starting at 30 μM and an EC50 value was determined.

| Compound | EC50 [µM] |
| --- | --- |
| Clc1ccc2c(Nc3ccc(Cl)nc3)nccc2c1 [Example 21, 6-chloro-N-(6-chloropyridin-3-yl)isoquinolin-1-amine] | 10 to 30 |
| Cc1ccc(Nc2nccc3cc(OCC4CC4)ccc23)cn1 [Example 28, 6-(cyclopropylmethoxy)-N-(6-methylpyridin-3-yl)isoquinolin-1-amine] | 1 to 10 |
| CC(Oc1ccc2c(Nc3ccc(Cl)nc3)nccc2c1)C1CC1 (stereo not shown) [Example 29, N-(6-chloropyridin-3-yl)-6-(1-cyclopropylethoxy)isoquinolin-1-amine] | 1 to 10 |
| Clc1ccc(Nc2nccc3occc23)cn1 [Example 30, N-(6-chloropyridin-3-yl)furo[3,2-c]pyridin-4-amine formate] | 1 to 10 |
| Clc1ccc(Nc2nccc3cccnc23)cn1 [Example 31, N-(6-chloropyridin-3-yl)-1,7-naphthyridin-8-amine formate] | 1 to 10 |
| Clc1ncc(Nc2nccc3cccnc23)cn1 [Example 32, N-(2-chloropyrimidin-5-yl)-1,7-naphthyridin-8-amine] | 1 to 10 |
| Clc1ccc(Nc2nccc3ccccc23)cn1 [Example 33, N-(6-chloropyridin-3-yl)isoquinolin-1-amine] | 1 to 10 |
| CS(C)(=O)=Nc1ccc2c(Nc3ccc(Cl)nc3)nccc2c1 [Example 34, ((1-((6-chloropyridin-3-yl)amino)isoquinolin-6-yl)imino)dimethyl-λ^6-sulfanone] | 1 to 10 |
| Cc1cnc(Nc2ccc(Cl)nc2)c2[nH]ccc12 [Example 35, N-(6-chloropyridin-3-yl)-4-methyl-1H-pyrrolo[2,3-c]pyridin-7-amine] | 1 to 10 |
| COCCOc1ccc2c(Nc3cnc(C)nc3)nccc2c1 [Example 37, 6-(2-methoxyethoxy)-N-(2-methylpyrimidin-5-yl)isoquinolin-1-amine] | 10 to 30 |
| Cc1ncc(Nc2nccc3cc(OCCOC4CC4)ccc23)cn1 [Example 38, 6-(2-cyclopropoxyethoxy)-N-(2-methylpyrimidin-5-yl)isoquinolin-1-amine] | 10 to 30 |
| Clc1ccc(Nc2nccc3cc(OCCOC4CC4)ccc23)cn1 [Example 39, N-(6-chloropyridin-3-yl)-6-(2-cyclopropoxyethoxy)isoquinolin-1-amine] | 1 to 10 |
| FC(F)c1ccc(Nc2nccc3cc(OCC4(F)CC4)ccc23)cn1 [Example 43, N-(6-(difluoromethyl)pyridin-3-yl)-6-((1-fluorocyclopropyl)methoxy)isoquinolin-1-amine] | ≥ 30 |
| CCc1ncc(Nc2nccc3cc(OCC4(F)CC4)ccc23)cn1 [Example 44, N-(2-ethylpyrimidin-5-yl)-6-((1-fluorocyclopropyl)methoxy)isoquinolin-1-amine] | 10 to 30 |
| Cc1ncc(Nc2nccc3cc(OCC4(F)CC4)ccc23)cc1Cl [Example 45, N-(5-chloro-6-methylpyridin-3-yl)-6-((1-fluorocyclopropyl)methoxy)isoquinolin-1-amine] | ≥ 30 |
| COc1ncc(Nc2nccc3cc(OCC4(F)CC4)ccc23)cn1 [Example 46, 6-((1-fluorocyclopropyl)methoxy)-N-(2-methoxypyrimidin-5-yl)isoquinolin-1-amine] | 1 to 10 |
| FC1(COc2ccc3c(Nc4ccc(C(F)(F)F)nc4)nccc3c2)CC1 [Example 47, 6-((1-fluorocyclopropyl)methoxy)-N-(6-(trifluoromethyl)pyridin-3-yl)isoquinolin-1-amine] | ≥ 30 |
| FC1(COc2ccc3c(Nc4cncc(Cl)c4)nccc3c2)CC1 [Example 48, N-(5-chloropyridin-3-yl)-6-((1-fluorocyclopropyl)methoxy)isoquinolin-1-amine] | 1 to 10 |
| FC1(COc2ccc3c(Nc4cncnc4)nccc3c2)CC1 [Example 49, 6-((1-fluorocyclopropyl)methoxy)-N-(pyrimidin-5-yl)isoquinolin-1-amine] | 1 to 10 |
| Clc1ccc(Nc2nccc3cc(OCc4ccncn4)ccc23)cn1 [Example 51, N-(6-chloropyridin-3-yl)-6-(pyrimidin-4-ylmethoxy)isoquinolin-1-amine] | 1 to 10 |
| CN1C(=O)CCC1COc1ccc2c(Nc3ccc(Cl)nc3)nccc2c1 (stereo not shown) [Example 53, 5-(((1-((6-chloropyridin-3-yl)amino)isoquinolin-6-yl)oxy)methyl)-1-methylpyrrolidin-2-one] | 1 to 10 |

Results, then the compound that gave them:

| EC50 [µM] | Compound |
| --- | --- |
| 1 to 10 | Clc1ccc(Nc2nccc3cc[nH]c23)cn1 [Example 14, N-(6-chloropyridin-3-yl)-1H-pyrrolo[2,3-c]pyridin-7-amine] |
| 1 to 10 | COc1cnc(Nc2ccc(Cl)nc2)c2[nH]ccc12 [Example 15, N-(6-chloropyridin-3-yl)-4-methoxy-1H-pyrrolo[2,3-c]pyridin-7-amine formate] |
| 1 to 10 | Clc1ccc(Nc2nccc3ccoc23)cn1 [Example 16, N-(6-chloropyridin-3-yl)furo[2,3-c]pyridin-7-amine formate] |
| 1 to 10 | Cc1csc2c(Nc3ccc(Cl)nc3)nccc12 [Example 17, N-(6-chloropyridin-3-yl)-3-methylthieno[2,3-c]pyridin-7-amine] |
| 1 to 10 | Fc1ccc2c(Nc3ccc(Cl)nc3)nccc2c1 [Example 18, N-(6-chloropyridin-3-yl)-6-fluoroisoquinolin-1-amine formate] |
| 1 to 10 | COc1ccc2c(Nc3ccc(Cl)nc3)nccc2c1 [Example 19, N-(6-chloropyridin-3-yl)-6-methoxyisoquinolin-1-amine formate] |
| 1 to 10 | Cc1ccc2c(Nc3ccc(Cl)nc3)nccc2c1 [Example 20, N-(6-chloropyridin-3-yl)-6-methylisoquinolin-1-amine formate] |
| 1 to 10 | Fc1cccc2c(Nc3ccc(Cl)nc3)nccc12 [Example 22, N-(6-chloropyridin-3-yl)-5-fluoroisoquinolin-1-amine] |
| 1 to 10 | Fc1ccc2c(Nc3cnc(Cl)nc3)nccc2c1 [Example 23, N-(2-chloropyrimidin-5-yl)-6-fluoroisoquinolin-1-amine] |
| 1 to 10 | Cc1ncc(Nc2nccc3cc(OCC4CC4)ccc23)cn1 [Example 24, 6-(cyclopropylmethoxy)-N-(2-methylpyrimidin-5-yl)isoquinolin-1-amine] |
| 1 to 10 | Cc1ncc(Nc2nccc3cc(OCC4CCOC4)ccc23)cn1 (stereo not shown) [Example 25, N-(2-methylpyrimidin-5-yl)-6-((tetrahydrofuran-3-yl)methoxy)isoquinolin-1-amine] |
| 1 to 10 | Cc1ncc(Nc2nccc3cc(OCC(F)F)ccc23)cn1 [Example 26, 6-(2,2-difluoroethoxy)-N-(2-methylpyrimidin-5-yl)isoquinolin-1-amine] |
| 1 to 10 | Cc1ncc(Nc2nccc3cc(OCC4CCC(C)(C)O4)ccc23)cn1 (stereo not shown) [Example 27, 6-((5,5-dimethyltetrahydrofuran-2-yl)methoxy)-N-(2-methylpyrimidin-5-yl)isoquinolin-1-amine] |
| < 1 | COc1cc(Nc2nccc3cc(OCC4(C)COC4)ccc23)cnc1Cl [Example 36, N-(6-chloro-5-methoxypyridin-3-yl)-6-((3-methyloxetan-3-yl)methoxy)isoquinolin-1-amine] |
| < 1 | N#CC12CC(COc3ccc4c(Nc5cnc(Cl)nc5)nccc4c3)(C1)C2 [Example 40, 3-(((1-((2-chloropyrimidin-5-yl)amino)isoquinolin-6-yl)oxy)methyl)bicyclo[1.1.1]pentane-1-carbonitrile] |
| < 1 | CC(C)C1(COc2ccc3c(Nc4cnc(Cl)nc4)nccc3c2)COC1 [Example 41, N-(2-chloropyrimidin-5-yl)-6-((3-isopropyloxetan-3-yl)methoxy)isoquinolin-1-amine] |
| < 1 | CC1(COc2ccc3c(Nc4cnc(Cl)c(O)c4)nccc3c2)COC1 [Example 42, 2-chloro-5-((6-((3-methyloxetan-3-yl)methoxy)isoquinolin-1-yl)amino)pyridin-3-ol] |
| < 1 | N#CC1(COc2ccc3c(Nc4ccc(Cl)nc4)nccc3c2)CCOCC1 [Example 50, 4-(((1-((6-chloropyridin-3-yl)amino)isoquinolin-6-yl)oxy)methyl)tetrahydro-2H-pyran-4-carbonitrile] |
| < 1 | FC1(COc2ccc3c(Nc4ccc(Cl)nc4)nccc3c2)COC1 [Example 52, N-(6-chloropyridin-3-yl)-6-((3-fluorooxetan-3-yl)methoxy)isoquinolin-1-amine] |
| < 1 | COc1cc(Nc2nccc3cc(OCc4cnn(C)c4)ccc23)cnc1Cl [Example 54, N-(6-chloro-5-methoxypyridin-3-yl)-6-((1-methyl-1H-pyrazol-4-yl)methoxy)isoquinolin-1-amine] |
| < 1 | COc1cc(Nc2nccc3cc(OCc4cnn(C)c4)ccc23)cnc1C [Example 55, N-(5-methoxy-6-methylpyridin-3-yl)-6-((1-methyl-1H-pyrazol-4-yl)methoxy)isoquinolin-1-amine formate] |
| < 1 | FC1(COc2ccc3c(Nc4cnc(Cl)nc4)nccc3c2)COC1 [Example 56, N-(2-chloropyrimidin-5-yl)-6-((3-fluorooxetan-3-yl)methoxy)isoquinolin-1-amine] |
